Results from ChEMBL document CHEMBL1131663, “Terphenyl cyclooxygenase-2 (COX-2) inhibitors: optimization of the central ring and o-biphenyl analogs” (Bioorg Med Chem Lett, 1999).

Experiments:
[1] = biological target: T1, Prostaglandin G/H synthase 1 (Ovis aries, UniProt P05979); test: In vitro inhibitory concentration against ovine COX-1
T1 sequence (P05979 whole entry): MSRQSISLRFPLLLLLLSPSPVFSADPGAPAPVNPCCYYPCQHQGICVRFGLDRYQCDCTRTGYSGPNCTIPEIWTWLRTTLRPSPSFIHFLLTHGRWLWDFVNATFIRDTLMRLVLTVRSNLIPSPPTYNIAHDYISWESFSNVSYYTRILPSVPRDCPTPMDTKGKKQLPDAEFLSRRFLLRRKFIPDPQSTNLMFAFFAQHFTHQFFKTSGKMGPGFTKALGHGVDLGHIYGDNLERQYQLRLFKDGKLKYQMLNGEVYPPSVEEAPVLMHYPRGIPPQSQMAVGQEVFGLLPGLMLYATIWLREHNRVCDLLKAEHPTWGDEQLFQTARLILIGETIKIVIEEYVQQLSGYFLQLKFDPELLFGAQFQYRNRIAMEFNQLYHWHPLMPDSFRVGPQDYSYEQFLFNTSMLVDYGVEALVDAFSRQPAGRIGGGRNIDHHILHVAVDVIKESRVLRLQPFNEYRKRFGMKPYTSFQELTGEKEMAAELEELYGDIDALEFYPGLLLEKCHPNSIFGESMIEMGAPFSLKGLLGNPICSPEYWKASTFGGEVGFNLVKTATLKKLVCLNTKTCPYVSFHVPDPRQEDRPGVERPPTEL

[2] = biological target: T2, Prostaglandin G/H synthase 2 (Homo sapiens, UniProt P35354); test: In vitro inhibitory concentration against recombinant human Prostaglandin G/H synthase 2 obtained from baculovirus
T2 sequence (P35354 whole entry): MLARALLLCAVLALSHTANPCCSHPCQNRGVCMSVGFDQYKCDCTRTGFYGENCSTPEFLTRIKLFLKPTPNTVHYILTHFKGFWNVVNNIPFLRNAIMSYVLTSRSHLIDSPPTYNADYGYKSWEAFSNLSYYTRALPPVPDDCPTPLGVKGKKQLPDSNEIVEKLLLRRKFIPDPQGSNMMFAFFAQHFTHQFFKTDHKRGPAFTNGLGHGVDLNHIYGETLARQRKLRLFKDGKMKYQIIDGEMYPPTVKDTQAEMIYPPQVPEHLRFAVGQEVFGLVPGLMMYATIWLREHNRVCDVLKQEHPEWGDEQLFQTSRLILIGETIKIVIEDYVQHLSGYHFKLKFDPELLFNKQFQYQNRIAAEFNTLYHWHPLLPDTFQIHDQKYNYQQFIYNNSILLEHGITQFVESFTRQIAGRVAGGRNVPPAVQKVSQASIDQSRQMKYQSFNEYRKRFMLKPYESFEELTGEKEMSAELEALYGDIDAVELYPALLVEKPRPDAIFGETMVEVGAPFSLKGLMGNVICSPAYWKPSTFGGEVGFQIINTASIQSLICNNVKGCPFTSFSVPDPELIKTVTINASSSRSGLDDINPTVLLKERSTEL

Compound | IC50 [1] [µM] | IC50 [2] [µM]
CS(=O)(=O)c1ccc(-c2ccccc2-c2ccc3ccccc3n2)cc1 | > 1000 | 57
COc1ccc2cc(-c3ccccc3-c3ccc(S(C)(=O)=O)cc3)ccc2c1 | > 1000 | 30
CS(=O)(=O)c1ccc(-c2ccccc2-c2cccnc2)cc1 | > 300 | 87
CS(=O)(=O)c1ccc(-c2cccnc2-c2ccccc2)cc1 | > 1000 | 
CS(=O)(=O)c1ccc(-c2ccccc2-c2cncnc2)cc1 | > 300 | > 300
CS(=O)(=O)c1ccc(-c2cc3ccccc3cc2-c2ccccc2)cc1 | > 300 | 41
CS(=O)(=O)c1ccc(-c2cc([N+](=O)[O-])ccc2-c2ccccc2)cc1 | > 300 | 38
CN1CC=C(c2ccccc2-c2ccc(S(C)(=O)=O)cc2)CC1 | > 300 | > 300
CS(=O)(=O)c1ccc(-c2ccccc2Oc2ccccc2)cc1 | > 1000 | 33
CS(=O)(=O)c1ccc(-c2nccnc2-c2ccccc2)cc1 | > 300 | > 300
CS(=O)(=O)c1ccc(-c2ccccc2-c2ccncc2)cc1 | > 300 | > 300
CS(=O)(=O)c1ccc(-c2ccccc2C2CCCCC2)cc1 | > 1000 | 31
CS(=O)(=O)c1ccc(-c2ccccc2C2=CCCCC2)cc1 | > 1000 | 33
CS(=O)(=O)c1ccc(-c2ccccc2-c2ccccn2)cc1 | > 300 | > 300
CS(=O)(=O)c1ccc(-c2ccccc2-c2ccccc2)cc1 | > 1000 | 

Second part, the molecule after the results:

IC50 [1] [µM] | IC50 [2] [µM] | Compound
> 300 | > 300 | CS(=O)(=O)c1ccc(-c2ccccc2Cc2ccccc2)cc1
17 | 254 | CS(=O)(=O)c1ccc(-c2ccc(N)cc2-c2ccccc2)cc1
43 | 14 | CS(=O)(=O)c1ccc(-c2ccccc2N2CCCCC2)cc1
> 300 | 48 | COC(=O)c1ccc(-c2ccccc2)c(-c2ccc(S(C)(=O)=O)cc2)c1
> 300 | > 300 | CS(=O)(=O)c1ccc(-c2ncccc2-c2ccccc2)cc1
404 | 147 | CS(=O)(=O)c1ccc(-c2cc(O)ccc2-c2ccccc2)cc1
> 100 | 44 | CS(=O)(=O)c1ccc(-c2ccc([N+](=O)[O-])cc2-c2ccccc2)cc1
35 | 194 | CS(=O)(=O)c1ccc(-c2cc(N)ccc2-c2ccccc2)cc1
232 | > 300 | CS(=O)(=O)c1ccc(-c2cc(C(=O)O)ccc2-c2ccccc2)cc1
